What was measured:
FGFR2 = FGFR2 (Homo sapiens (Human), UniProt P21802); experiment: FGFR2 Biochemical Caliper Assay
Protocol: Compounds of the present invention were also tested in a FGFR2 Biochemical Caliper Assay. Compounds were prepared in 10 mM DMSO solution and serially diluted into 11 concentrations by 3-fold dilution. […] 5 uL of ATP solution (100 uM) was added to start the reaction and the plate was incubated for 90 minutes, then 70 uL of stopping buffer (0.5M EDTA) was added to terminate the reaction. Each well was analyzed using EZ reader.

SNU16 cells = experiment: SNU16 Cancer Cell Line Proliferation Assay; type: cell-based; settings: Homo sapiens; SNU-16 cells
Protocol: Compounds of the present invention were also tested in a SNU16 Cancer Cell Line Proliferation Assay, Test compounds were prepared in a 10 mM DMSO stock solution. 45 uL of stock solution was transferred to a 384 well plate, and a 3-fold 11-point dolution was performed. SNU16 cells in a 384 well cell culture plate were seeded and incubated at 37 degrees for 24 hours. 40 nL of each concentration of compound was transferred from the compound plate to a corresponding well in the cell culture plate by Echo550 liquid handler. The plates were incubated for 96 hours, then equilibrated to room temperature for 15 minutes. 20 uL of CellTiter Glo reagent is added into each well, then the plate was shaken gently for 30 minutes at room temperature. Chemiluminescence was then read on an EnVision reader.

Sequence of FGFR2 (P21802 22-821): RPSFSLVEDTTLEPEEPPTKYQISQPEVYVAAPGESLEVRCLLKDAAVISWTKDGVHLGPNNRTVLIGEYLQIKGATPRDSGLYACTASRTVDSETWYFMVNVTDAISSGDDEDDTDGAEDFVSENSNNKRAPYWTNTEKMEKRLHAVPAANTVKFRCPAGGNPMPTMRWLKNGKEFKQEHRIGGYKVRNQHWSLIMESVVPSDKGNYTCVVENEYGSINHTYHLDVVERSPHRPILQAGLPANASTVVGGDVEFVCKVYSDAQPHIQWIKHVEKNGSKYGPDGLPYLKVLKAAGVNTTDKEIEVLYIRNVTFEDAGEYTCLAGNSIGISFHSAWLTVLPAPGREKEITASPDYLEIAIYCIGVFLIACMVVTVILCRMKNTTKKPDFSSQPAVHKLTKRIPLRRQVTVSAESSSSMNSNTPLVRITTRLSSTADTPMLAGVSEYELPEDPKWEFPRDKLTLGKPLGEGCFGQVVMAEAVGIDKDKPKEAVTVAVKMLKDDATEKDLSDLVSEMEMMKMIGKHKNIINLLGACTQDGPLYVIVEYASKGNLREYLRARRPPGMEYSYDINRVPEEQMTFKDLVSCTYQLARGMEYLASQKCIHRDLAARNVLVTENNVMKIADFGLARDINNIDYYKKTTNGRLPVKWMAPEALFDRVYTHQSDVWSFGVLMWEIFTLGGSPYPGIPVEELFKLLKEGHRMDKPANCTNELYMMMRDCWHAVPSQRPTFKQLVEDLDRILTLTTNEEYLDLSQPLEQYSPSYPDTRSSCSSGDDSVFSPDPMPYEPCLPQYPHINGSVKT

| IC50 (FGFR2) [µM] | IC50 (SNU16 cells) [µM] | Structure (SMILES) |
| --- | --- | --- |
| < 0.1 | 0.25 to 1 | C=CC(=O)Nc1ccc(-c2c(-c3ccc(Oc4ncc(CO)cn4)c(OC)c3)c3c(N)ncnc3n2C)cc1 [Example 60] |
| 0.25 to 1 | 0.25 to 1 | C=C(C)C(=O)Nc1ccc(-c2c(-c3ccc(Sc4ncccn4)cc3)c3c(N)ncnc3n2C)cc1 [Example 69] |
| < 0.1 | ≤ 0.1 | C=C(C)C(=O)Nc1ccc(-c2c(-c3cc(F)c(Oc4ncccn4)c(Cl)c3)c3c(N)ncnc3n2C)cc1 [Example 94] |
| < 0.1 | ≤ 0.1 | C=C(C)C(=O)Nc1ccc(-c2c(-c3ccc(Oc4ncc(C)cn4)c(F)c3)c3c(N)ncnc3n2C)cc1 [Example 96] |
| < 0.1 | ≤ 0.1 | C=CC(=O)Nc1ccc(-c2c(-c3ccc(Oc4ncc(NC)cn4)c(OC)c3)c3c(N)ncnc3n2C)cc1 [Example 98] |
| < 0.1 | ≤ 0.1 | C=CC(=O)Nc1ccc(-c2c(-c3ccc(Oc4ncc(Cl)cn4)cc3)c3c(N)ncnc3n2C)cc1 [Example 103] |
| 0.25 to 1 | 0.1 to 0.25 | C=C(C)C(=O)Nc1ccc(-c2c(-c3ccc(Oc4ccc(F)cn4)c(F)c3)c3c(N)ncnc3n2C)cc1 [Example 114] |
| < 0.1 | ≤ 0.1 | C=C(C)C(=O)Nc1ccc(-c2c(-c3ccc(Oc4ncc(F)cn4)c(F)c3)c3c(N)ncnc3n2C)cc1 [Example 116] |
| 0.25 to 1 | 0.1 to 0.25 | C=C(C)C(=O)Nc1ccc(-c2c(-c3ccc(Oc4ccc(OC)c(F)n4)cc3)c3c(N)ncnc3n2C)cc1 [Example 117] |
| < 0.1 | ≤ 0.1 | C=CC(=O)Nc1ccc(-c2c(-c3ccc(Oc4ccc(Cl)c(C)n4)cc3)c3c(N)ncnc3n2C)cc1 [Example 123] |
| < 0.1 | ≤ 0.1 | C=CC(=O)Nc1ccc(-c2c(-c3ccc(C(=O)N4CCCC4)cc3)c3c(N)ncnc3n2C)cc1 [Example 128] |
| 0.25 to 1 | 0.1 to 0.25 | C=C(C)C(=O)Nc1ccc(-c2c(-c3ccc(C(=O)N4CC(C)C4)cc3)c3c(N)ncnc3n2C)cc1 [Example 135] |
| 0.25 to 1 | ≤ 0.1 | C=C(C)C(=O)Nc1ccc(-c2c(-c3ccc(C(=O)N4CCC(F)(F)C4)cc3)c3c(N)ncnc3n2C)cc1 [Example 137] |
| 0.25 to 1 | 0.1 to 0.25 | C=C(C)C(=O)Nc1ccc(-c2c(-c3ccc(Cn4nc(C)cc4C)cc3)c3c(N)ncnc3n2C)cc1 [Example 140] |
| < 0.1 | ≤ 0.1 | C=C(C)C(=O)Nc1ccc(-c2c(-c3ccc(C(=O)N4CCCCC4)cc3)c3c(N)ncnc3n2C)cc1 [Example 141] |
| < 0.1 | ≤ 0.1 | C=CC(=O)Nc1ccc(-c2c(-c3ccc(Oc4ccn(C)n4)c(OC)c3)c3c(N)ncnc3n2C)cc1 [Example 145] |
| 0.25 to 1 | 0.25 to 1 | C=C(C)C(=O)Nc1ccc(-c2c(-c3ccc(C(=O)N(C)C)cc3)c3c(N)ncnc3n2C)cc1 [Example 152] |
| 0.25 to 1 | 0.1 to 0.25 | C=C(C)C(=O)Nc1ccc(-c2c(-c3ccc(C(=O)N4CCCC4)c(OC)c3)c3c(N)ncnc3n2C)cc1 [Example 156] |
| 0.25 to 1 | 0.25 to 1 | C=C(C)C(=O)Nc1ccc(-c2c(-c3ccc(C(=O)N4CCC(O)C4)cc3)c3c(N)ncnc3n2C)cc1 (centres unmarked) [Example 157] |
| < 0.1 | ≤ 0.1 | C=CC(=O)Nc1ccc(-c2c(-c3ccc(C(=O)N4CCCC4)c(OC)c3)c3c(N)ncnc3n2C)cc1 [Example 161] |
| 1 to 100 | 0.25 to 1 | C=C(C)C(=O)Nc1ccc(-c2c(-c3cncc(N4CCOCC4)c3)c3c(N)ncnc3n2C)cc1 [Example 166] |
| 1 to 100 | 0.25 to 1 | C=C(C)C(=O)Nc1ccc(-c2c(-c3ccc(C(=O)N4CCOCC4)cc3)c3c(N)ncnc3n2C)cc1 [Example 176] |
| 0.25 to 1 | 0.1 to 0.25 | C=C(C)C(=O)Nc1ccc(-c2c(-c3ccc4sc(C(=O)N(C)C)cc4c3)c3c(N)ncnc3n2C)cc1 [Example 180] |
| 0.25 to 1 | 0.25 to 1 | C=C(C)C(=O)Nc1ccc(-c2c(-c3ccc(N4CCNC4=O)cc3)c3c(N)ncnc3n2C)cc1 [Example 194] |
| 1 to 100 | 0.25 to 1 | C=C(C)C(=O)Nc1ccc(-c2c(C3CCN(C(=O)N4CCCC4)CC3)c3c(N)ncnc3n2C)cc1 [Example 197] |
| < 0.1 | 0.1 to 0.25 | CN(C)C/C=C/C(=O)Nc1ccc(-c2c(-c3ccc(C(=O)N4CCCC4)cc3)c3c(N)ncnc3n2C)cc1 [Example 206] |

Continued, molecule first:

| Structure (SMILES) | IC50 (FGFR2) [µM] | IC50 (SNU16 cells) [µM] |
| --- | --- | --- |
| Cc1cccc(Oc2ccc(-c3c(-c4ccc(NC(=O)C(C)C)cc4)n(C)c4ncnc(N)c34)cc2)n1 [Example 70] | 0.25 to 1 | 0.25 to 1 |
| C=CC(=O)Nc1ccc(-c2c(-c3ccc(Oc4ncc(Cl)cn4)c(OC)c3)c3c(N)ncnc3n2C)cc1 [Example 78] | < 0.1 | ≤ 0.1 |
| C=C(C)C(=O)Nc1ccc(-c2c(-c3ccc(Oc4cccc(C)n4)cc3)c3c(N)ncnc3n2CC)cc1 [Example 83] | < 0.1 | ≤ 0.1 |
| C=C(C)C(=O)Nc1ccc(-c2c(-c3ccc(NC(C)=O)c(OC)c3)c3c(N)ncnc3n2C)cc1 [Example 86] | 1 to 100 | 0.25 to 1 |
| C=C(C)C(=O)Nc1ccc(-c2c(-c3ccc(Oc4cccc(C)n4)cc3)c3c(N)ncnc3n2C2CC(O)C2)cc1 (centres unmarked) [Example 90] | < 0.1 | ≤ 0.1 |
| C=C(C)C(=O)Nc1ccc(-c2c(-c3ccc(Oc4cccc(C)n4)cc3)c3c(N)ncnc3n2CCO)cc1 [Example 91] | < 0.1 | ≤ 0.1 |
| C=C(C)C(=O)Nc1ccc(-c2c(-c3ccc(C(=O)N4CCCC4)cc3)c3c(N)ncnc3n2C)cc1 [Example 95] | 0.1 to 0.25 | ≤ 0.1 |
| C=C(C)C(=O)Nc1ccc(-c2c(-c3ccc(Oc4ccn(C)n4)c(OC)c3)c3c(N)ncnc3n2C)cc1 [Example 100] | 0.25 to 1 | 0.1 to 0.25 |
| C=CC(=O)Nc1ccc(-c2c(-c3ccc(Oc4ncc(F)cn4)c(OC)c3)c3c(N)ncnc3n2C)cc1 [Example 101] | < 0.1 | ≤ 0.1 |
| C=C(C)C(=O)Nc1ccc(-c2c(-c3cc(F)c(Oc4ncccn4)c(F)c3)c3c(N)ncnc3n2C)cc1 [Example 110] | < 0.1 | ≤ 0.1 |
| C=CC(=O)Nc1ccc(-c2c(-c3ccc(Oc4ncc(C(F)F)cn4)c(OC)c3)c3c(N)ncnc3n2C)cc1 [Example 113] | < 0.1 | ≤ 0.1 |
| C=CC(=O)Nc1ccc(-c2c(-c3cc(C)c(Oc4ncccn4)c(OC)c3)c3c(N)ncnc3n2C)cc1 [Example 120] | < 0.1 | ≤ 0.1 |
| C=C(C)C(=O)Nc1ccc(-c2c(-c3ccc(C(=O)N(C)C)nc3)c3c(N)ncnc3n2C)cc1 [Example 143] | 1 to 100 | 0.25 to 1 |
| C=CC(=O)Nc1ccc(-c2c(C3=CCC(C(=O)NC)CC3)c3c(N)ncnc3n2C)cc1 (centres unmarked) [Example 148] | < 0.1 | ≤ 0.1 |
| C=C(C)C(=O)Nc1ccc(-c2c(-c3ccc(S(=O)(=O)C4CCCC4)cc3)c3c(N)ncnc3n2C)cc1 [Example 150] | < 0.1 | ≤ 0.1 |
| C=C(C)C(=O)Nc1ccc(-c2c(-c3ccc(C(=O)N4CC5CCCC5C4)cc3)c3c(N)ncnc3n2C)cc1 (centres unmarked) [Example 154] | 0.1 to 0.25 | ≤ 0.1 |
| CC#CC(=O)Nc1ccc(-c2c(-c3ccc(C(=O)N4CCCC4)cc3)c3c(N)ncnc3n2C)cc1 [Example 155] | < 0.1 | ≤ 0.1 |
| C=C(C)C(=O)Nc1ccc(-c2c(-c3ccc([S+]([O-])C4CC4)cc3)c3c(N)ncnc3n2C)cc1 (centres unmarked) [Example 160] | 0.25 to 1 | 0.25 to 1 |
| C=C(C)C(=O)Nc1ccc(-c2c(-c3ccc(Oc4cccc(F)c4)nc3)c3c(N)ncnc3n2C)cc1 [Example 167] | 1 to 100 | 0.1 to 0.25 |
| C=C(C)C(=O)Nc1ccc(-c2c(-c3ccc(Oc4cccc(C(F)(F)F)c4)nc3)c3c(N)ncnc3n2C)cc1 [Example 169] | 1 to 100 | 0.25 to 1 |
| C=CC(=O)Nc1ccc(-c2c(C3=CCC(NC(C)=O)CC3)c3c(N)ncnc3n2C)cc1 (centres unmarked) [Example 171] | 0.1 to 0.25 | 0.25 to 1 |
| C=CC(=O)Nc1ccc(-c2c(-c3ccc(OC4CCOC4)c(C)c3)c3c(N)ncnc3n2C)cc1 (centres unmarked) [Example 174] | < 0.1 | ≤ 0.1 |
| C=C(C)C(=O)Nc1ccc(-c2c(-c3ccc(N4CCCCC4=O)cc3)c3c(N)ncnc3n2C)cc1 [Example 186] | 1 to 100 | 0.25 to 1 |
| C=C(C)C(=O)Nc1ccc(-c2c(-c3ccc(CN4CCOCC4=O)cc3)c3c(N)ncnc3n2C)cc1 [Example 188] | 1 to 100 | 0.25 to 1 |
| C=C(C)C(=O)Nc1ccc(-c2c(-c3ccc(C(=O)N4CCCCC4C)cc3)c3c(N)ncnc3n2C)cc1 (centres unmarked) [Example 189] | < 0.1 | ≤ 0.1 |
| C=C(C)C(=O)Nc1ccc(-c2c(-c3ccc(C(=O)N4CCC(C)CC4)cc3)c3c(N)ncnc3n2C)cc1 [Example 190] | 1 to 100 | 0.25 to 1 |
| C=C(C)C(=O)Nc1ccc(-c2c(-c3ccc(-c4ccon4)cc3)c3c(N)ncnc3n2C)cc1 [Example 199] | 0.25 to 1 | 0.25 to 1 |
| C=C(C)C(=O)Nc1ccc(-c2c(C3=CCC(C(=O)NC)CC3)c3c(N)ncnc3n2C)cc1 (centres unmarked) [Example 201] | 1 to 100 | 0.25 to 1 |
| C=C(C)C(=O)Nc1ccc(-c2c(-c3ccc(OC4CCOC4)c(C)c3)c3c(N)ncnc3n2C)cc1 (centres unmarked) [Example 202] | 0.25 to 1 | 0.1 to 0.25 |

Reference: patent US11780845B2 (Relay Therapeutics, Inc., priority 2019, dated 2023)
